According to patent US7005124B2, “Dendritic-antineoplastic drug delivery system” (priority 1997, dated 2006):
Like-named read-outs stand apart in the source and are kept apart here.

Experiments:
[1] = test system: B16F10; assay: Cell cytotoxicity of dendrimer-platinate, MTT; assay type: cell-based, murine; conditions: Pt-equiv.
Description: (§1) All cellular growth and cytotoxic incubations were carried out in a cell incubator at 37° C. and 5% CO2 atmosphere.
(§2) Cell density was assessed using an improved neurenbrow hemocytometer (Sigma). The cells were washed with PBS twice and fresh RPMI media (supplemented with FCS) added, the cells were then seeded in a microtitre plate. The cells were left for 24 hours to recover and re-adhere. If cells were in a suspension they were spun at 1000×g and resuspended in fresh media.
(§3) Some cells were left in media only to act as cellular controls. The cells were left in the incubator for 72 hours, and checked occasionally for yeast or bacterial contamination. Five hours prior to the incubation time end point, at 67 hours, 20 μl of MTT was added and the cells left for the final 5 hours. Then cellular media was removed and 100 μl of optical grade DMSO (Sigma) was added and the MTT crystals dissolved.

[2] = test system: CCRF-CEM; assay: Cell cytotoxicity of dendrimer-platinate, MTT; assay type: cell-based, human; conditions: Pt-equiv.
Description: as §1, §2, §3

[3] = test system: Cor L23; assay: Cell cytotoxicity of dendrimer-platinate, MTT; assay type: cell-based, human; conditions: Pt-equiv.
Description: as §1, §2, §3

[4] = test system: B16F10; assay: Activity against B16F10 I.P., I.P. injection; assay type: in vivo, C57 mice; conditions: dose 5 Pt-equiv mg/Kg, day 1
Description: (§4) Alternatively drug was administered I.V. to mice bearing S.C. implanted B16F10 when the tumor reached palpable size (50–100 mm^2). Animal weight, tumor size and animal survival were monitored (UK guidelines for animal experiments involving neoplasia were followed.)
(§5) Li 210 or B16F10 cells were injected at a cell density into a mouse (DBA2 or C57 respectively, 25 g) at a cell density of 1×10^5 (0.9% saline solution) into the intraperitoneal (I.P. 100 μl) cavity. […] The mouse body weight and general toxicity was also monitored according to UK guidelines in the use of animals used in neoplasia studies. At the end point the gross morphology of the organs was noted.

[5] = test system: L1210; conditions: L1210 ip
Description: as §4, §5

## N.N.[Cl][Pt][Cl] [Cisplatin, cis-diamminedichloroplatinum]
[1]
  IC50 Values: 9 µg/mL
[2]
  IC50 Values: 5 µg/mL
[3]
  IC50 Values: 1 µg/mL
[4]
  T/C: 89
[5]; dose 2 Pt-equiv mg/Kg I.P. days 1, 2, 3
  T/C: 171
[5]; dose 3 Pt-equiv mg/Kg I.P. days 1, 2, 3
  T/C: 64
